According to PubChem BioAssay AID1963864 (Molecular Pharmacology Branch, DTP, NCI, 2024):

Test system: KRAS PDC multicell spheroid viability
Assay: Anticancer human tumor 521955-158-R6-J3-PDC patient-derived pancreatic carcinoma cell line growth inhibition [KRAS2]
Settings: for IC50: curve of first compound; for viability, T/C: stronger effect = lower value
Procedure, shortened: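 KRAS-mutant tumor cells were grown as spheroids with HUVEC endothelial cells and human MSCs as stroma. Targeted agents were tested alone and with KRAS pathway inhibitors. Doses started at or near clinical Cmax, or 10 microM, descending half-log.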

[1] = second compound 0.1 µM, first compound 0.0316 µM
[2] = second compound 0.1 µM, first compound 0.1 µM
[3] = second compound 0.1 µM, first compound 0.316 µM
[4] = second compound 0.1 µM, first compound 1 µM
[5] = second compound 0.1 µM, first compound 3.16 µM
[6] = second compound 0.1 µM, first compound 10 µM
[7] = second compound 0.316 µM, first compound 0.0316 µM
[8] = second compound 0.316 µM, first compound 0.1 µM
[9] = second compound 0.316 µM, first compound 0.316 µM
[10] = second compound 0.316 µM, first compound 1 µM
[11] = second compound 0.316 µM, first compound 3.16 µM
[12] = second compound 0.316 µM, first compound 10 µM
[13] = second compound 1 µM, first compound 0.0316 µM
[14] = second compound 1 µM, first compound 0.1 µM
[15] = second compound 1 µM, first compound 0.316 µM
[16] = second compound 1 µM, first compound 1 µM
[17] = second compound 1 µM, first compound 3.16 µM
[18] = second compound 1 µM, first compound 10 µM
[19] = second compound 3.16 µM, first compound 0.0316 µM
[20] = second compound 3.16 µM, first compound 0.1 µM
[21] = second compound 3.16 µM, first compound 0.316 µM
[22] = second compound 3.16 µM, first compound 1 µM
[23] = second compound 3.16 µM, first compound 3.16 µM
[24] = second compound 3.16 µM, first compound 10 µM
[25] = second compound 10 µM, first compound 0.0316 µM
[26] = second compound 10 µM, first compound 0.1 µM
[27] = second compound 10 µM, first compound 0.316 µM
[28] = second compound 10 µM, first compound 1 µM
[29] = second compound 10 µM, first compound 3.16 µM
[30] = second compound 10 µM, first compound 10 µM
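Further: drug exposure lasted seven days.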
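Wherever viability, T/C is given: 100% = DMSO vehicle wells and lower means fewer viable cells.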

Structure (SMILES) | IC50 (second compound 0.1 µM) | IC50 (second compound 0.316 µM) | IC50 (second compound 1 µM) | IC50 (second compound 3.16 µM) | IC50 (second compound 10 µM) | viability, T/C [1] | viability, T/C [2] | viability, T/C [3] | viability, T/C [4] | viability, T/C [7] | viability, T/C [8] | viability, T/C [9] | viability, T/C [10] | viability, T/C [13] | viability, T/C [14] | viability, T/C [15] | viability, T/C [16] | viability, T/C [19] | viability, T/C [20] | viability, T/C [21] | also measured
CC(C)NCC(C(=O)N1CCN(c2ncnc3c2C(C)CC3O)CC1)c1ccc(Cl)cc1 (stereo not given) + CC1OCC2(CCN(c3cnc(Sc4ccnc(N)c4Cl)c(N)n3)CC2)C1N | > 10000 nM | > 10000 nM | > 10000 nM | 1350 nM | 643 nM | 86.9% | 77.1% | 68.8% | 68.7% | 84.3% | 71.4% | 61.1% | 63.5% | 78.1% | 74.6% | 60.7% | 54.7% | 86.9% | 78.7% | 59.7% | viability, T/C [5]: 61.7%; viability, T/C [6]: 56%; viability, T/C [11]: 60.2%; viability, T/C [12]: 48.9%; viability, T/C [17]: 50.9%; viability, T/C [18]: 51.7%; viability, T/C [22]: 53%; viability, T/C [23]: 47.5%; viability, T/C [24]: 43.3%; viability, T/C [25]: 102%; viability, T/C [26]: 73.8%; viability, T/C [27]: 56.7%; viability, T/C [28]: 43.9%; viability, T/C [29]: 44.2%; viability, T/C [30]: 34.1%
CCN1CCN(Cc2ccc(Nc3ncc(F)c(-c4cc(F)c5nc(C)n(C(C)C)c5c4)n3)nc2)CC1 + CC1OCC2(CCN(c3cnc(Sc4ccnc(N)c4Cl)c(N)n3)CC2)C1N | > 1000 nM | > 1000 nM | > 1000 nM | > 1000 nM | > 1000 nM | 73% | 68.4% | 76% | 88.2% | 82.3% | 69.2% | 71.8% | 85.3% | 97% | 82.1% | 78.8% | 90.1% | 84.4% | 78.7% | 83.6% | viability, T/C (second compound 0.1 µM, first compound 0.00316 µM): 81.3%; viability, T/C (second compound 0.1 µM, first compound 0.01 µM): 79.9%; viability, T/C (second compound 0.316 µM, first compound 0.00316 µM): 101%; viability, T/C (second compound 0.316 µM, first compound 0.01 µM): 84.1%; viability, T/C (second compound 1 µM, first compound 0.00316 µM): 94.5%; viability, T/C (second compound 1 µM, first compound 0.01 µM): 91.2%; viability, T/C (second compound 3.16 µM, first compound 0.00316 µM): 113%; viability, T/C (second compound 3.16 µM, first compound 0.01 µM): 109%; viability, T/C [22]: 115%; viability, T/C (second compound 10 µM, first compound 0.00316 µM): 118%; viability, T/C (second compound 10 µM, first compound 0.01 µM): 116%; viability, T/C [25]: 111%; viability, T/C [26]: 114%; viability, T/C [27]: 95.1%; viability, T/C [28]: 86.7%
CCNC(=O)CC1N=C(c2ccc(Cl)cc2)c2cc(OC)ccc2-n2c(C)nnc21 (stereo not given) + CC1OCC2(CCN(c3cnc(Sc4ccnc(N)c4Cl)c(N)n3)CC2)C1N | > 10000 nM | > 10000 nM | > 10000 nM | > 10000 nM | 1070 nM | 84.1% | 83.5% | 58.9% | 73.5% | 102% | 90.3% | 69.3% | 68.1% | 99.5% | 86.6% | 70.8% | 65.9% | 106% | 103% | 77% | viability, T/C [5]: 62.6%; viability, T/C [6]: 73.3%; viability, T/C [11]: 56.4%; viability, T/C [12]: 62.2%; viability, T/C [17]: 56.4%; viability, T/C [18]: 59.8%; viability, T/C [22]: 62.6%; viability, T/C [23]: 58%; viability, T/C [24]: 53.3%; viability, T/C [25]: 115%; viability, T/C [26]: 105%; viability, T/C [27]: 76.4%; viability, T/C [28]: 50%; viability, T/C [29]: 43.2%; viability, T/C [30]: 43%
